# Experimental data: patent US5716953A, “1,5-benzodiazepine derivatives” (Glaxo Wellcome S.p.A., priority 1993, dated 1998)
# Structures can show the parent of a compound that is named as a salt. Where two headings read alike, the source gives them in different places.
# Legend:
# CCK-B receptor = target: T1, CCK-B receptor (Cavia porcellus, UniProt H0VZC5); assay: CCK-B receptor binding (guinea pig cortex assay)
# T1 construct: CCK-B receptor (guinea pig cortex assay); from tissue; host or cells: guinea pig cortex
# T1 sequence (H0VZC5 1-426): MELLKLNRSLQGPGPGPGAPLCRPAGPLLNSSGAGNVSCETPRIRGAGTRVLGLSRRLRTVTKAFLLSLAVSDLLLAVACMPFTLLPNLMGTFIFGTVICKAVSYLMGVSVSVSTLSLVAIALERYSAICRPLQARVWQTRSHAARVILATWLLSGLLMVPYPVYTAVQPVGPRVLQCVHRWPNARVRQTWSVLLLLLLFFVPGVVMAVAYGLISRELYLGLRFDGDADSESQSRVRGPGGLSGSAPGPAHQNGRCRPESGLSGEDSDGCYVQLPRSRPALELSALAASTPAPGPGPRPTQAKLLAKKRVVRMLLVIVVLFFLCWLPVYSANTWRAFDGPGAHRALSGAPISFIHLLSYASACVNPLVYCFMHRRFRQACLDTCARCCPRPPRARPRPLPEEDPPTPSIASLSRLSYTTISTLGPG
# Experimental: The greater affinity of the compounds of the invention for the CCK-B receptor over the CCK-A receptor has also been established using the CCK receptor binding assays described by G Dal Forno et al., J. Pharmcol. Exp & Ther. 261, 1056-1063, 1992.
# The binding affinity of the compounds of the invention for the CCK-A receptor (Pancreas Assay) and CCK-B receptor (guinea pig cortex assay) was determined using the procedure of G Dal Forno et al J. Pharmacol. Exp & Ther. 261-1056-1063. The pKi values determined with representative compounds of invention were as follows: […]
# CCK-A receptor = CCK-A receptor binding (Pancreas Assay)
# Experimental: Exp & Ther. 261, 1056-1063, 1992.
# The binding affinity of the compounds of the invention for the CCK-A receptor (Pancreas Assay) and CCK-B receptor (guinea pig cortex assay) was determined using the procedure of G Dal Forno et al J. Pharmacol. Exp & Ther. 261-1056-1063.
# mice = assay: oral administration to mice, observation of untoward effects at anxiolytic doses; type: in vivo; details: orally; for untoward effects: at doses at which the compounds exhibit anxiolytic activity
# Text: (§1) The compounds of the invention are essentially non-toxic and therapeutically useful doses.
# rats = assay: oral administration to rats, observation of untoward effects at anxiolytic doses; type: in vivo; details: orally
# Text: as §1
# [1] = CCK-B receptor, guinea pig cortex assay, read-out: pKi CCK-B (converted)
Structure (SMILES),Ki (CCK-B receptor; [1]),pKi CCK-A (CCK-A receptor),other results
"CC(C)CCN1C(=O)C(NC(=O)Nc2ccccc2)C(=O)N(CCN2CCOCC2)c2ccccc21 (stereo not shown) [Example 1, N-[2,4-Dioxo-1-(3-methyl-1-butyl)-5-[2-(4-morpholinyl)ethyl]-2,3,4,5-tetrahydro-1H-1,5-benzodiazepin-3-yl]-N'-phenylurea]",2.88 nM,6.17,–
"CC(C)CCN1C(=O)C(NC(=O)Nc2ccc(C(F)(F)F)cc2)C(=O)N(CCN2CCOCC2)c2ccccc21 (stereo not shown) [Example 16, N-[2,4-Dioxo-1-(3-methyl-1-butyl)-5-[2-(4-morpholino)ethyl]-2,3,4,5-tetrahydro-1H-1,5-benzodiazepin-3-yl]-N'-(4-trifluoromethyl)phenylurea]",3.63 nM,5.83,–
"CN(C)CCCN1C(=O)C(NC(=O)Nc2ccccc2)C(=O)N(CC23CC4CC(CC(C4)C2)C3)c2ccccc21 (stereo not shown) [Example 8, N-[1-(1-Adamantylmethyl)-5-[3-(dimethylamino)propyl]-2,4-dioxo-2,3,4,5-tetrahydro-1H-1,5-benzodiazepin-3-yl]-N'-phenylurea]",3.63 nM,4.69,–
"CC(C)CCN1C(=O)C(NC(=O)Nc2ccccc2)C(=O)N(CCN2CCCCC2)c2ccccc21 (stereo not shown) [Example 2, N-[2,4-Dioxo-1-(3-methyl-1-butyl)-5-[2-(1-piperidino)ethyl]-2,3,4,5-tetrahydro-1H-1,5-benzodiazepin-3-yl]-N'-phenylurea]",6.76 nM,5.69,–
"CN(C)CCN1C(=O)C(NC(=O)Nc2ccccc2)C(=O)N(CC23CC4CC(CC(C4)C2)C3)c2ccccc21 (stereo not shown) [Example 7, N-[1-(1-Adamantylmethyl)-5-[2-(dimethylamino)ethyl]-2,4-dioxo-2,3,4,5-tetrahydro-1H-1,5-benzodiazepin-3-yl]-N'-phenylurea]",1.29 nM,5.49,–
"CC(C)CCN1C(=O)C(NC(=O)Nc2ccccc2)C(=O)N(CCN(C)C)c2ccccc21 (stereo not shown) [Example 3, N-[5-[2-(Dimethylamino)ethyl]-2,4-dioxo-1-(3-methyl-1-butyl) -2,3,4,5-tetrahydro-1H-1,5-benzodiazepin-3-yl]-N'-phenylurea]",4.68 nM,5.48,–
"N[C@@H](CO)CN1C(=O)C(NC(=O)Nc2ccccc2)C(=O)N(CC23CC4CC(CC(C4)C2)C3)c2ccccc21 (stereo partly drawn) [Example 12, N-[1-(1-Adamantylmethyl)-2,4-dioxo-5-[(3-hydroxy-2(R)amino)propyl]-2,3,4,5-tetrahydro-1H-1,5-benzodiazepin-3-yl]-N'-phenylurea hydrochloride]",–,5.04,"pKi CCK-B (CCK-B receptor; CCK-B receptor, guinea pig cortex assay): 8.18"
CCN(CC)CCN1C(=O)C(NC(=O)Nc2ccccc2)C(=O)N(CCC(C)C)c2ccccc21 (stereo not shown) [Example 6],1.58 nM,5.39,–
"O=C(Nc1ccccc1)NC1C(=O)N(CCN2CCOCC2)c2ccccc2N(CC23CC4CC(CC(C4)C2)C3)C1=O (stereo not shown) [Example 9, N-[1-(1-Adamantylmethyl)-2,4-dioxo-5-[2-(4-morpholino)ethyl]-2,3,4,5-tetrahydro-1H-benzodiazepin-3-yl]-N'-phenylurea]",0.575 nM,5.69,–
"CCN(CC)CCN1C(=O)C(NC(=O)Nc2ccccc2)C(=O)N(CC2CCCCC2)c2ccccc21 (stereo not shown) [Example 13, N-[1-(Cyclohexylmethyl)-2,4-dioxo-5-[(2-diethylamino)ethyl]-2,3,4,5-tetrahydro-1H-1,5-benzodiazepin-3-yl]-N'-phenylurea]",1.02 nM,5.82,–
"O=C(Nc1ccccc1)NC1C(=O)N(CCN2CCOCC2)c2ccccc2N(CC23CC4CC(CC(C4)C2)C3)C1=O (single isomer, unassigned) [Example 11 (isomer 1), N-[1-(1-Adamantylmethyl)-2,4-dioxo-5-[2-(4-morpholino)ethyl]-2,3,4,5-tetrahydro-1H-benzodiazepin-3-yl]-N'-phenylurea Isomer 1]",0.214 nM,5.69,anxiolytic activity (mice): exhibit anxiolytic activity; untoward effects (mice): no untoward effects were observed
"CC(C)CCN1C(=O)C(NC(=O)Nc2ccc(O)cc2)C(=O)N(CCN2CCOCC2)c2ccccc21 (stereo not shown) [Example 5, N-[2,4-Dioxo-1-(3-methyl-1-butyl)-5-[2-(4-morpholinyl)ethyl]-2,3,4,5-tetrahydro-1H-1,5-benzodiazepin-3-yl]-N'-(4-hydroxyphenyl)urea]",7.41 nM,5.08,–
"CC(C)CCN1C(=O)C(NC(=O)Nc2ccc(Cl)cc2)C(=O)N(CCN2CCOCC2)c2ccccc21 (stereo not shown) [Example 15, N-[1-(3-methyl-1-butyl)-2,4-dioxo-5-[2-(4-morpholino)ethyl]-2,3,4,5-tetrahydro-1H-benzodiazepin-3-yl]-N'-(4-chlorophenyl)urea]",1.95 nM,5.99,–
"COc1ccc(NC(=O)NC2C(=O)N(CCC(C)C)c3ccccc3N(CCN3CCOCC3)C2=O)cc1 (stereo not shown) [Example 4, N-[2,4-Dioxo-1-(3-methyl-1-butyl)-5-[2-(4-morpholino)ethyl]-2,3,4,5-tetrahydro-1H-1,5-benzodiazepin-3-yl]-N'-(4-methoxyphenyl)urea]",7.94 nM,5.29,–
"O=C(Nc1ccccc1)NC1C(=O)N(CCN2CCOCC2)c2ccccc2N(CC23CC4CC(CC(C4)C2)C3)C1=O (single isomer, unassigned; (-)) [Example 18, (-)[1-(1-Adamantylmethyl)-2,4-dioxo-5-[2-(4-morpholino)ethyl]-2,3,4,5-tetrahydro-1H-1,5-benzodiazepin-3-yl]-N'-phenylurea, hydrochloride salt]",–,–,anxiolytic activity (rats): exhibit anxiolytic activity; untoward effects (rats; at doses at which the compounds exhibit anxiolytic activity): no untoward effects were observed; anxiolytic activity (mice): exhibit anxiolytic activity; untoward effects (mice): no untoward effects were observed
"O=C(Nc1ccccc1)NC1C(=O)N(CCN2CCCC2)c2ccccc2N(CC23CC4CC(CC(C4)C2)C3)C1=O (stereo not shown) [Example 10, N-[1-(1-Adamantylmethyl)-2,4-dioxo-5-[2-(1-pyrrolidino)ethyl]-2,3,4,5-tetrahydro-1H-benzodiazepin-3-yl]-N'-phenylurea]",1.05 nM,5.02,–
"O=C(Nc1ccccc1)NC1C(=O)N(CCN2CCOCC2)c2cc(F)ccc2N(CC23CC4CC(CC(C4)C2)C3)C1=O (stereo not shown) [Example 14, N-[1-(1-Adamantylmethyl)-2,4-dioxo-7-fluoro-5-[2-(4-morpholino)ethyl]-2,3,4,5-tetrahydro-1H-1,5-benzodiazepin-3-yl]-N'-phenylurea]",4.37 nM,5.88,–
"Cc1cccc(NC(=O)NC2C(=O)N(CCN3CCCCCC3)c3ccccc3N(c3ccccc3)C2=O)c1 (stereo not shown) [Example 17, N-[2,4-Dioxo-1-[2-(hexamethyleneimino)ethyl]-5-phenyl-2,3,4,5-tetrahydro-1H-benzodiazepin-3-yl]-N'-(3-tolyl)urea]",–,5.08,Ki (CCK-B receptor): 2 nM
